Experimental data from patent publication US20250388604A1, “Compounds and Their Use as PDE4 Activators” (Mironid Limited, priority 2022, published 2025).

Tests used:
[1] = test system: m-IMCD3 cells expressing PDE4 long forms; test: cAMP levels in PGE2-stimulated 3D m-IMCD3 cell culture media; format: cell-based; conditions: Mus musculus, mIMCD3, compared to 100% for (DMSO + PGE2), read-out: cAMP level (% of PGE2-stimulated); for activity at 3 µM: 3 μM test compound
Experimental: HEK 293 and MDCK cells (Public Health England, Cell Culture Collections) were maintained in Dulbecco's Modified Eagle's Medium (DMEM) supplemented with 10% (v/v) fetal bovine serum (FBS) (Seralab), 2 mM L-glutamine and 100 U/mL penicillin streptomycin cocktail (ThermoFisher); termed complete media. Clonal HEK 293 cell lines were maintained in complete media supplemented with 0.6 mg/ml G418 (Enzo Life Sciences). Mouse inner medullary collecting duct (m-IMCD3) cells [American Type Culture Collection (ATCC)] were maintained in media consisting of DMEM/Hams F-12 50/50 Mix (DMEM F12; Corning) supplemented with penicillin streptomycin cocktail (100 U/mL) and FBS (10% v/v) (DMEM F12-10% FBS).
Activation of intracellular PDE4 long forms leads to a reduction of both intracellular cAMP and externalised cAMP (Omar et al., PNAS 116: 13320-13329, 2019). This reduction may be measured in the cell culture media supernatant of 3D cystic cell cultures, such as in the m-IMCD3 cell cyst suppression assay described in Experiment 3.
Following the completion of the m-IMCD3 cell cyst suppression assay (Experiment 3), the cAMP level in the assay media from individual or pooled assay wells was measured using a cAMP ELISA kit (Enzo Life Sciences) or a LANCE Ultra cAMP kit (PerkinElmer) according to the manufacturer's instructions.

m-IMCD3 cells = test: Inhibition of PGE2-stimulated in vitro cyst formation in m-IMCD3 cells; format: cell-based, mouse; conditions: Mus musculus, mIMCD3, 144 h, mean cyst area, 100% for (DMSO + PGE2) and 0% for DMSO control, 6 days of culture; for activity at 10 µM: read-out: % Cyst area after incubation with 10 μM test compound; for activity at 3 µM: read-out: % Cyst area after incubation with 3 μM test compound
Outline: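 Mean cyst area after 6 days, expressed relative to DMSO+PGE2 (100%) and DMSO alone (0%), from z-stack images. Mouse m-IMCD3 spheroids grew in collagen I/Matrigel gels and received PGE2 (100 nM final) with test compound (0.1% DMSO) starting 18–24 h post-plating, media refreshed at day 2 or 3.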

SMILES | activity at 3 µM [1] [%] | activity at 10 µM (m-IMCD3 cells) [%] | activity at 3 µM (m-IMCD3 cells) [%] | activity at 10 µM ([1]; 10 μM test compound) [%]
O=C(CC1CCCC1)N1Cc2nc(N3C4CCC3CNC4)sc2C1 [Example 66, 1-(2-(3,8-diazabicyclo[3.2.1]octan-8-yl)-4,6-dihydro-5H-pyrrolo[3,4-d]thiazol-5-yl)-2-cyclopentylethan-1-one] | 36 | -5 | – | –
O=C(NC1CCCC1)N1Cc2nc(N3C4CCC3CNC4)sc2C1 [Example 68, 2-(3,8-diazabicyclo[3.2.1]octan-8-yl)-N-cyclopentyl-4,6-dihydro-5H-pyrrolo[3,4-d]thiazole-5-carboxamide] | 19 | -4 | – | –
O=C(CC1CCCC1)N1CCc2nc(N3CC4CCC(C3)N4)sc2C1 [Example 276, 1-(2-(3,8-diazabicyclo[3.2.1]octan-3-yl)-6,7-dihydrothiazolo[5,4-c]pyridin-5(4H)-yl)-2-cyclopentylethan-1-one] | 41 | – | 13 | –
O=C(c1ccc(C(F)(F)F)nc1)N1CCc2nc(N3C4CCC3CNC4)sc2C1 [Example 241, (2-(3,8-diazabicyclo[3.2.1]octan-8-yl)-6,7-dihydrothiazolo[5,4-c]pyridin-5(4H)-yl)(6-(trifluoromethyl)pyridin-3-yl)methanone] | 43 | – | 4 | –
O=C(C1COc2ccccc21)N1CCc2nc(N3C4CCC3CNC4)sc2C1 (stereo not drawn) [Example 184, (2-(3,8-diazabicyclo[3.2.1]octan-8-yl)-6,7-dihydrothiazolo[5,4-c]pyridin-5(4H)-yl)(2,3-dihydrobenzofuran-3-yl)methanone] | 58 | – | 15 | –
CCCN1CC2CCC(C1)N2c1nc2c(s1)CN(C(=O)COc1ccc(F)cc1)CC2 [Example 303, 2-(4-fluorophenoxy)-1-(2-(3-propyl-3,8-diazabicyclo[3.2.1]octan-8-yl)-6,7-dihydrothiazolo[5,4-c]pyridin-5(4H)-yl)ethan-1-one] | 55 | – | 0 | –
O=C(CC1CCCC1)N1CCc2nc(N3C4CCCC3CNC4)sc2C1 [Example 273, 1-(2-(3,9-diazabicyclo[3.3.1]nonan-9-yl)-6,7-dihydrothiazolo[5,4-c]pyridin-5(4H)-yl)-2-cyclopentylethan-1-one] | 58 | – | -11 | –
CCN1CC2CCC(C1)N2c1nc2c(s1)CN(C(=O)N[C@H]1CCOc3ccccc31)CC2 [Example 294, N—((S)-chroman-4-yl)-2-(3-ethyl-3,8-diazabicyclo[3.2.1]octan-8-yl)-6,7-dihydrothiazolo[5,4-c]pyridine-5(4H)-carboxamide] | 39 | – | -5 | –
CC(C)(C)CC(=O)N1CCc2nc(N3C4CCC3CNC4)sc2C1 [Example 10, 1-(2-(3,8-diazabicyclo[3.2.1]octan-8-yl)-6,7-dihydrothiazolo[5,4-c]pyridin-5(4H)-yl)-3,3-dimethylbutan-1-one] | – | -3 | – | 38
CC(C)C(=O)N1Cc2sc(N3C4CCC3CNC4)nc2CC1(C)C [Example 268, 1-(2-(3,8-diazabicyclo[3.2.1]octan-8-yl)-6,6-dimethyl-6,7-dihydrothiazolo[5,4-c]pyridin-5(4H)-yl)-2-methylpropan-1-one] | 39 | – | 1 | –
CCN1CC2CCC(C1)N2c1nc2c(s1)CN(C(=O)NCc1ccc(F)cc1)CC2 [Example 300, 2-(3-ethyl-3,8-diazabicyclo[3.2.1]octan-8-yl)-N-(4-fluorobenzyl)-6,7-dihydrothiazolo[5,4-c]pyridine-5(4H)-carboxamide] | 48 | – | -3 | –
O=C(N1CCn2nc(N3C4CCC3CNC4)cc2C1)C(F)(F)c1ccccc1 [Example 126, 1-(2-(3,8-diazabicyclo[3.2.1]octan-8-yl)-6,7-dihydropyrazolo[1,5-a]pyrazin-5(4H)-yl)-2,2-difluoro-2-phenylethan-1-one] | 39 | -10 | – | –
